Results: article PMC6656724 (Communications Biology, 2019)
Several values for one entry are separate records, joined by “and”; a condition that tells them apart may be missing. Equal entries are not always repeated. Where two headings read alike, the source gives them in different places.

Columns and labels:
MDR1 MDCK cell lines = assay: in vitro; type: in vitro ADME, canine; details: MDR1 MDCK; listed as Inhibitor 1
[1] = system: wild type MDCK cell lines; assay: in vitro; type: in vitro ADME, canine; details: wild type MDCK; listed as Inhibitor 1
[2] = Rat brain penetration study; type: in vivo, male Han Wistar rats; details: 1b 5 mg/kg i.v.; for In blood, prodrug 1b / In brain, prodrug 1b / Unbound brain, prodrug 1b / concentration at 5 min / concentration at 15 min / concentration at 30 min / concentration at 60 min: single rats; for In brain, prodrug 1b / Unbound brain, prodrug 1b: listed as prodrug 1b; for concentration at 5 min / concentration at 15 min / concentration at 30 min / concentration at 60 min: intravenous, 5 mg free base/kg
Description: Prodrug 1b was dosed as a bolus solution intravenously at 5 mg free base/kg (dose volume: 1 mL/kg; dose vehicle: 10% DMSO; 60% PEG400; 30% MilliQ H2O) to male Han Wistar rats (n = 12). At 5, 15, 30 and 60 min following intravenous bolus injection of prodrug 1b, […] (n = 3/timepoint) were placed under terminal anaesthesia with isofluorane. A blood sample was taken by cardiac puncture, the […] decapitated and the brain removed. Brain weight was noted and each brain homogenised with two volumes of methanol:water (1:1; 2 mL/g brain). Each blood sample was diluted with distilled water (1:2). Diluted blood and the brain homogenates were then stored frozen until preparation and analysis by UPLC-MS/MS, monitoring for prodrug 1b and production of inhibitor 1. For each rat at each timepoint for 1, the concentration in brain (ng/g) was divided by the concentration in blood (ng/mL) to give a brain:blood ratio. The mean value obtained was quoted.
A rapid and sensitive ultra-performance chromatography/tandem mass spectrometry (UPLC-MS/MS) method was developed and validated for the determination of inhibitor 1 and prodrug 1b (rat only). Chromatographic analysis was conducted on a Waters Acquity™ UPLC system. Chromatographic separation was performed with an Acquity™ UPLC BEH C18 column (50 × 2.1 mm, 1.7 µm, 130Å; Waters Corp.) maintained at 40 °C in a column oven. The mobile phase consisted of water with 0.01% formic acid and ACN with 0.01 % formic acid and it was delivered at a flow rate of 0.6 mL/min under gradient eluent conditions within an analysis cycle time of 3 min. The mass detection was conducted on a Waters Xevo™ TQs mass spectrometer equipped with a ScanWave™ technology. Quantitation of the analyte was performed in electrospray positive ionisation mode (ESI^+) using multiple reaction monitoring. The optimised fragmentation transition was m/z = 270.17 → 196.19 (mouse) or m/z = 270.17 → 223.76 (rat) for inhibitor 1 and m/z = 297.83 → 195.74 for prodrug 1b (rat).
Sample extraction for blood and brain homogenate was by protein precipitation (1:3 or 1:6) using ACN containing suitable internal standard. Extracts were vortexed followed by centrifugation (2800 rpm for 10 min). An aliquot of each supernatant was then diluted two-fold in distilled water ready for analysis by UPLC-MS/MS.
The weighted 1/x^2 calibration line was linear in the dynamic range of 1–5000 ng/mL for inhibitor 1 and 1–1000 ng/mL for prodrug 1b with a correlation coefficient (r^2) > 0.99 (inhibitor 1) or 0.98 (prodrug 1b). The quality control samples (QC) were prepared by using the same spiking scheme as the calibration samples and up to four different target concentration brain levels: 2 ng/mL (LQC), 40 ng/mL (MQC), 100 ng/mL (HQC) and 2000 ng/mL. Data collection, peak integration and calculations were performed using MassLynx software, version 2.1.

Structure (SMILES): Cc1cc2c(c(C)c1Cl)N(CC(=O)O)C(=O)CO2 [compound 1, (6-chloro-5,7-dimethyl-3-oxo-2,3-dihydro-4H-1,4-benzoxazin-4-yl) acetic acid]
- Papp A>B Mean (MDR1 MDCK cell lines): ~ 15 x 10-6 cm/sec
- Papp A>B Mean [1]: ~ 15 x 10-6 cm/sec

Structure (SMILES): CCOC(=O)CN1C(=O)COc2cc(C)c(Cl)c(C)c21 [1b]
- In blood, prodrug 1b ([2]; 5 min): ≤ 3 ng/mL
- In brain, prodrug 1b ([2]; 5 min): 2623 ng/g and 2264 ng/g
- Unbound brain, prodrug 1b ([2]; 5 min): 42 ng/g and 36 ng/g
- In blood, prodrug 1b ([2]; 15 min): ≤ 3 ng/mL
- In brain, prodrug 1b ([2]; 15 min): 715 ng/g and 791 ng/g
- Unbound brain, prodrug 1b ([2]; 15 min): 11 ng/g and 13 ng/g
- In blood, prodrug 1b ([2]; 30 min): ≤ 3 ng/mL
- In brain, prodrug 1b ([2]; 30 min): 203 ng/g
- Unbound brain, prodrug 1b ([2]; 30 min): 3 ng/g
- In blood, prodrug 1b ([2]; 60 min): ≤ 3 ng/mL
- concentration at 5 min ([2]; male, Han Wistar, brain (unbound), 5 min, read-out: Unbound brain, prodrug 1b): 38 ng/g
- concentration at 15 min ([2]; male, Han Wistar, brain (unbound), 15 min, read-out: Unbound brain, prodrug 1b): 13 ng/g
- concentration at 30 min ([2]; male, Han Wistar, brain (unbound), 30 min, read-out: Unbound brain, prodrug 1b): 4 ng/g
- concentration at 5 min ([2]; male, Han Wistar, brain, 5 min, read-out: In brain, prodrug 1b): 2350 ng/g
- concentration at 15 min ([2]; male, Han Wistar, brain, 15 min, read-out: In brain, prodrug 1b): 829 ng/g
- concentration at 30 min ([2]; male, Han Wistar, brain, 30 min, read-out: In brain, prodrug 1b): 240 ng/g
- concentration at 60 min ([2]; male, Han Wistar, brain, 60 min, read-out: In brain, prodrug 1b): 62 ng/g
- concentration at 60 min ([2]; male, Han Wistar, brain, 60 min, read-out: Unbound brain, prodrug 1b): 1 ng/g
- Tmax ([2]; male, Han Wistar, brain, iv, read-out: Time of maximal concentration of 1b in the brain (converted)): 5 min
- concentration at 5 min ([2]; male, Han Wistar, whole blood, 5 min, read-out: In blood, prodrug 1b): ≤ 3 ng/mL
- concentration at 15 min ([2]; male, Han Wistar, whole blood, 15 min, read-out: In blood, prodrug 1b): ≤ 3 ng/mL
- concentration at 30 min ([2]; male, Han Wistar, whole blood, 30 min, read-out: In blood, prodrug 1b): ≤ 3 ng/mL
- concentration at 60 min ([2]; male, Han Wistar, whole blood, 60 min, read-out: In blood, prodrug 1b): ≤ 3 ng/mL
